This experiment deals with HIV-1 (H9IIIB or NL4-3 virus) replication in MT4-GFP cells. Nature of the experiment: microbe, parasite or virus in culture. The class given is cell-based. The conditions noted are these: inhibition of reproductive ratio R0, 48-72 h post-infection.
The mark [1] stands for this setting: Human immunodeficiency virus 1, NL43, MT4-GFP cells infected with HIV-1, 100% normal human serum, read-out: ViKinG IP (nM) with 100% NHS.
Where [2] appears, read: Human immunodeficiency virus 1, NL43, MT4-GFP cells infected with HIV-1, serum free conditions (0% NHS), read-out: ViKinG IP (nM) with 0% NHS.
The mark [3] stands for this setting: MT4-GFP cells infected with HIV-1, 100% normal human serum, read-out: ViKinG IP (nM) with 100% NHS.
Setting [4] is: MT4-GFP cells infected with HIV-1, serum free conditions (0% NHS), read-out: ViKinG IP (nM) with 0% NHS.
Where [5] appears, read: Human immunodeficiency virus 1, NL43, MT4-GFP cells infected with HIV-1, 10% normal human serum, read-out: ViKinG IP (nM) with 10% NHS.

Like-named read-outs stand apart in the source and are kept apart here.

`CN1C(=O)c2c(O)c(=O)c(C(=O)NCc3ccc(F)cc3F)cn2CC12CCOC2` (single isomer, unassigned) [Compound 57]: the IC50 by setting is: under setting [1], 36 nM; under setting [2], 1.6 nM.

On to `CN1C(=O)c2c(O)c(=O)c(C(=O)NCc3cccc(Cl)c3F)cn2N(C)C12COCC2(C)C` (single isomer, unassigned) [Compound 127], for which the IC50 reads like this: under setting [1], 134 nM; under setting [2], 1 nM.

`CCN1C(=O)c2c(O)c(=O)c(-c3nnc(Cc4ccc(F)cc4F)s3)cn2CC12CCOCC2` [Compound 99]: the IC50 was 870 nM under setting [1] and 40.9 nM under setting [2].

In the case of `COCCCN1C(=O)c2c(O)c(=O)c(C(=O)NCc3ccc(F)cc3F)cn2CC12CCNCC2` [Compound 89], the IC50 is, setting by setting: under setting [1], 87 nM; under setting [2], 16.1 nM.

For the molecule `COCCN1n2cc(C(=O)NCc3ccc(F)cc3F)c(=O)c(O)c2C(=O)N(C)C12CCOC2` (single isomer, unassigned) [Compound 156], the IC50 is, setting by setting: under setting [3], 106 nM; under setting [4], 1.2 nM.

As for `CCN1C(=O)c2c(O)c(=O)c(C(=O)NCc3ccc(F)cc3F)cn2N(C)C12CCNCC2` [Compound 173], the IC50 is, setting by setting: under setting [1], 52 nM; under setting [2], 3.2 nM.

For the molecule `CCOCCN1C(=O)c2c(O)c(=O)c(C(=O)NCc3ccc(F)cc3F)cn2CC12CCOC2` (single isomer, unassigned) [Compound 78], the IC50 is, setting by setting: under setting [3], 55 nM; under setting [4], 2.3 nM.

Take `CN1C(=O)c2c(O)c(=O)c(C(=O)NCc3c(F)cccc3F)cn2N(C)C12CCOC2` (single isomer, unassigned) [Compound 116]: the IC50 worked out at 42 nM under setting [3] and 0.7 nM under setting [4].

On to `CN1C(=O)c2c(O)c(=O)c(C(=O)NCc3ccccc3F)cn2N(C)C12CCOC2` (single isomer, unassigned) [Compound 111], for which the IC50 by setting is: under setting [1], 158 nM; under setting [2], 1.6 nM.

As for `CCOCCN1C(=O)c2c(O)c(=O)c(C(=O)NCc3ccc(F)cc3F)cn2N(C)C12CCOCC2` [Compound 142], the IC50 runs as follows: under setting [5], 13 nM; under setting [1], 171 nM; under setting [2], 1.3 nM.

Take `CCN1C(=O)c2c(O)c(=O)c(C(=O)NCc3ccc(F)cc3F)cn2CC12CCOCC2` [Compound 40]: the IC50 worked out at 236 nM under setting [1] and 2.8 nM under setting [2].

For the molecule `CN1C(=O)c2c(O)c(=O)c(C(=O)NCc3cccc(Cl)c3F)cn2N(C)C12CCOC2` (single isomer, unassigned) [Compound 109], the IC50 by setting is: under setting [1], 229 nM; under setting [2], 0.6 nM.

`CN1C(=O)c2c(O)c(=O)c(C(=O)NCc3ccc(F)cc3F)cn2N(C)C12COCC2(C)C` (single isomer, unassigned) [Compound 130]: the IC50 was 257 nM under setting [3] and 2.3 nM under setting [4].

Consider `COCCN1C(=O)c2c(O)c(=O)c(C(=O)NCc3ccc(F)cc3F)cn2N(C)C12CCOC2` (single isomer, unassigned) [Compound 121], for which the IC50 runs as follows: under setting [5], 39 nM; under setting [2], 1.8 nM; under setting [3], 575 nM.

As to `CC1OCCC12N(C)C(=O)c1c(O)c(=O)c(C(=O)NCc3ccc(F)cc3F)cn1N2C` (single isomer, unassigned) [Compound 131], the IC50 reads like this: under setting [2], 0.8 nM; under setting [3], 114 nM.

Take `CN1C(=O)c2c(O)c(=O)c(C(=O)NCc3ccc(F)cc3F)cn2N(C)C12CCOC2` (centres unmarked) [Compound 103]: the IC50 is, setting by setting: under setting [5], 6 nM; under setting [1], 114 nM; under setting [4], 1.7 nM.

Turning to `CN1C(=O)c2c(O)c(=O)c(C(=O)NCc3ccc(F)cc3F)cn2N(CCO)C12CCOC2` (centres unmarked) [Compound 147], the IC50 runs as follows: under setting [2], 1.6 nM; under setting [3], 74 nM.

As to `CN1C(=O)c2c(O)c(=O)c(C(=O)NCc3ccc(F)cc3F)cn2N(C)C12CCNC2` (single isomer, unassigned) [Compound 170], the IC50 by setting is: under setting [3], 66 nM; under setting [4], 5 nM.

`CCN1C(=O)c2c(O)c(=O)c(-c3nnc(Cc4ccc(F)cc4)s3)cn2N(C)C12CCNCC2` [Compound 33]: the IC50 reads like this: under setting [5], 49 nM; under setting [1], 89 nM.
